# US8048455B2, “Treatment of cancer and inflammatory disorder” (Academia Sinica, priority 2006, dated 2011)
# Tests used:
# Assay type in all cases: cell-based, murine
# [1] = system: iNOS mRNA; assay: iNOS mRNA expression (RT-PCR) in LPS-stimulated RAW264.7 cells; conditions: LPS 1 μg/mL 6 h
# Description: For each RT-PCR analysis, 2 μg of total RNA isolated with TRIZOL® Reagent was used to synthesize 1st-strand cDNA using […]™ II Reverse Transcriptase (Invitrogen). The iNOS and COX-2 genes were amplified and analyzed using specific oligonucleotide primers and PCR reactions by method described in Chiang et al. Br J Pharmacol 2005; 146:352-63).
# RAW264.7 cells were treated with various concentrations of dLGG for 1 hour, then incubated with LPS (1 μg/mL) for 6 hours. Total cellular RNA was subjected to RT-PCR, and final PCR product resolved by 1% agarose gel electrophoresis.
# [2] = system: IKKα/β; assay: IKKα/β phosphorylation, IRAK-1 degradation and IKK kinase assay in LPS-stimulated RAW 264.7 cells
# Description: Whole cell lysates (300 μg) of macrophages were pre-cleaned by incubation with 0.25 μg IgG and 20 μL protein A/G plus agarose beads (Santa Cruz) for 30 minutes at 4° C. Supernatants were then collected and incubated with IKKα/β antibody and protein A/G plus agarose beads at 4° C. overnight. Precipitates were washed with an IP buffer and a kinase buffer. IKK kinase activity was assayed by adding 1 μg of GST-IκBα fusion protein (Santa Cruz) and 200 μM ATP in 20 μL kinase buffer for 30 minutes at 30° C. and then stopped by mixing with the Laemmli's loading buffer and heated at 100° C. for 5 minutes. Samples were then subjected to immunoblotting.
# Assays were carried out in RAW 264.7 cells to examine the effects of dLGG on levels of IKKα/β and phospho-IKKα/β, the upstream kinase of IκBα in the NF-κB signaling pathway, and the upstream kinase, IRAK-1, for activating IKK complex. Cells were pretreated with various concentrations of dLGG for 1 hours, followed by LPS stimulation (1 μg/mL for 30 min). Specific IKKα/β and the phosphorylated forms of IKKα/β or GST-IκBα were detected by immunoblotting. IKKα/β immunoprecipitates were prepared from total cell lysate using anti-IKKα/β antibody and subsequently subjected to IKK kinase assay using GST-IκBα as substrate. […] (nuclear protein) and α-tubulin (cytosolic protein) were used as loading controls.
# IKK enzymatic activity was also determined to confirm whether it was correlated to the inhibition of IκBα phosphorylation by dLGG. Immunoprecipitated IKK proteins obtained from control cells (±LPS/−dLGG) or cells treated with LPS+dLGG were assayed for phosphorylation of GST-IκBα. The LPS-induced enzymatic phosphorylation of IκBα (p-IκBα) was decreased approximately 42% when treated with 75 μg/mL dLGG. The levels of immunoprecipitated IKK proteins were not affected by dLGG.
# [3] = system: NF-κB (p65); assay: NF-κB p65 nuclear translocation in LPS-stimulated RAW 264.7 cells (immunoblotting, confocal microscopy)
# Description: Total cellular proteins and the specific cytosolic and nuclear proteins were prepared using methods described in Chiang et al. Protein content was measured by the Bradford method (Bio-Rad). Protein was resolved by 5-20% gradient SDS-PAGE and subjected to immunoblotting using enhanced chemiluminescence reagents (ECL, Amersham). Monoclonal antibodies against PARP (Transduction Laboratories, Lexington, Ky.), GA3PDH (Biogenesis, Poole, UK), α-tubulin (Oncogene Science, Cambridge, UK), COX-2 (Cayman Chemical), phospho-(Ser32)-IκBα, phospho-IKKα(Ser180)/IKKβ(Ser181) (New England Biolabs, Beverly, Mass.), iNOS, IκBα, IKKα/β or NF-κB p65 (RelA) (Santa Cruz Biotechnology, Santa Cruz, Calif.) were used.
# RAW 264.7 cells were seeded in chamber slides for 1 hour, and then treated with DMSO or dLGG (75 μg/mL) for 1 hour, with or without LPS stimulation for an additional 90 minutes. The cells were fixed, permeabilized with 0.1% Triton X-100, and stained with Hoechst 33342 (DNA marker), FITC-labeled anti-α-tubulin Ab (cytoplasm marker), or rabbit anti-p65 antibody visualized with goat anti-rabbit Rhodamine Red-labeled secondary antibody for analysis with a Zeiss LSM 510 META confocal laser-scanning microscope.
# The distribution of NF-κB (p65) in nucleus and cytoplasm was determined using immunoblotting. Cells were treated with various concentrations of dLGG for 1 hour and then stimulated with LPS (1 μg/mL) for another 90 min. Nuclear and cytosolic fractions were immunoblotted with p65 NF-κB antibody. A slight increase in nuclear p65 protein (1.5-fold) was detected when macrophages were treated with a low concentration of dLGG (5 μg/mL), compared to LPS alone (1.0). With higher concentrations of dLGG (25 to 75 μg/mL), the level of nuclear p65 decreased accordingly. Cytoplasmic levels of NF-κB (p65) were not affected by dLGG treatment of LPS-stimulated macrophages.
# The effect of dLGG on NF-κB (p65) nuclear translocation was also examined by confocal microscopy. Macrophages were treated with 0.4% DMSO, or LPS (1 μg/mL) with or without dLGG (75 μg/mL), and stained with fluorescence-labeled antibodies against p65 (red). To distinguish nucleus from cytosol, cells were also stained with DNA-specific Hoechst 33342 (blue) and with anti-α-tubulin antibody (green). In vehicle-treated cells, p65 protein was mainly found in the cytosol of test cells.
# [4] = system: PGE2 production; assay: LPS-induced PGE2 production in RAW 264.7 macrophages; conditions: doses between 25 and 75 μg/mL
# Description: PGE2 production was determined according to the procedure described in Chiang et al. Br J Pharmacol 2005; 146:352-63. Macrophages were pretreated with aspirin (500 μM, 3 h) to inactivate endogenous cyclooxygenase-1, washed, and incubated with test compounds for 1 hour before further incubation for 16 hours with or without LPS. PGE2 in the culture media was determined with ACE™ Competitive Enzyme Immunoassay (Cayman Chemical).
# The above-mentioned test compounds were incubated with COX-2 enzyme and substrates before measuring the COX-2 activity. Celecoxib, a potent nonsteroidal anti-inflammatory drug (NSAID), was used as a positive control. […] The IC50 of the nonsteroidal anti-inflammatory drug celecoxib, used as a positive control, was 0.47 μg/mL. RAW 264.7 cells (1×10^4 cells/well) were treated with dLGG and then stimulated with LPS, and PGE2 in the culture medium was then measured.
smiles,measurement,setting,value
"CC/C=C\C/C=C\C/C=C\CCCCCCCC(=O)OC[C@H](CO[C@@H]1O[C@H](CO)[C@H](O)[C@H](O)[C@H]1O)OC(=O)CCCCCCC/C=C\C/C=C\C/C=C\CC [dLGG, 1,2-di-O-α-linolenoyl-3-O-β-galactopyranosyl-sn-glycerol]",Reduction of iNOS mRNA expression,[1],approximately 56%
same,"Decrease of LPS-induced enzymatic phosphorylation of IκBα (IKK kinase assay, GST-IκBα)",[2]; 75 μg/mL,approximately 42%
same,IRAK-1 degradation in LPS-stimulated macrophages,[2]; LPS-stimulated,inhibited
same,IKKα/β levels,"[2]; dLGG 1 h, LPS 1 μg/mL 30 min",little affected
same,LPS-induced phosphorylation of IKKα/β,"[2]; dLGG 1 h, LPS 1 μg/mL 30 min",inhibited
same,Nuclear p65 protein compared to LPS alone (1.0),"[3]; 5 μg/mL, LPS 90 min",1.5 fold
same,p65 nuclear translocation by confocal microscopy,"[3]; 75 μg/mL, LPS 1 μg/mL",drastically inhibited
same,Level of nuclear p65,"[3]; 25 to 75 μg/mL, LPS 90 min",decreased
same,Cytoplasmic levels of NF-κB (p65),[3]; LPS-stimulated macrophages,not affected
same,Reduction of LPS-induced PGE2 levels,[4],37-58%
